The nature of data set [1]: refractive index (Na D-line) (dimensionless). To be noted: 298.15 K; 101.33 kPa; Liquid; Standard Abbe refractometry.
The conditions of data set [2]: 293.15 K; 101.33 kPa; Liquid; Pycnometric method.

± gives the expanded uncertainty stated by the source.

Broadly, the refractive index is a measure of how strongly the sample bends light. What is called mass density is the mass of a sample divided by its volume. Consider `CCC(C)(C)OC` [2-methoxy-2-methylbutane], for which the refractive index in data set [1] was determined as 1.3867 ± 0.0008. Further, the mass density in data set [2] turned out to be 770.6 ± 0.8 kg/m3.
Consider `COC(C)(C)C` [2-methoxy-2-methylpropane], for which, in data set [1], the refractive index was 1.366 ± 0.0008. Moreover, in data set [2], the mass density amounted to 740.5 ± 0.8 kg/m3.
As to `C1CCCCC1` [cyclohexane], in data set [1], the refractive index amounted to 1.4236 ± 0.0008. Moreover, the mass density in data set [2] came to 778.4 ± 0.8 kg/m3.
For `CCCCCC` [hexane], the refractive index in data set [1] is listed as 1.3722 ± 0.0007. In data set [2], the mass density was found to be 659.4 ± 0.6 kg/m3.
Consider `Cc1ccccc1` [toluene], for which the refractive index in data set [1] is reported as 1.4941 ± 0.0008. The mass density in data set [2] was found to be 866.2 ± 0.9 kg/m3.

The values are drawn from the NIST ThermoML archive (doi:10.1021/je0495583).
